The values below come from patent US10723705B2, “Heterocyclic compounds and uses thereof” (Incyte Corporation, priority 2015, dated 2020).

Each structure is given as a SMILES string. Where two headings read alike, the source gives them in different places.

For this experiment, the target named is Human recombinant Histone Deacetylase 8 (HDAC8) (Homo sapiens (Human), UniProt Q9BY41). In words: HDAC8 Enzymatic Assay (HDAC-Glo I/II luminescence). The experiment is classed as biochemical. In outline: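 Human recombinant HDAC8 (1.5 nM final) preincubated with compound for 30 min, then reacted with 50 μM Boc-GAK(Ac)-aminoluciferin plus trypsin-containing developer for 15 min at room temperature, pH 8.0, 0.5% DMSO. Luminescence read-out; IC50 from percent control activity versus log concentration.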
Chain of Human recombinant Histone Deacetylase 8 (HDAC8) (Q9BY41 whole entry): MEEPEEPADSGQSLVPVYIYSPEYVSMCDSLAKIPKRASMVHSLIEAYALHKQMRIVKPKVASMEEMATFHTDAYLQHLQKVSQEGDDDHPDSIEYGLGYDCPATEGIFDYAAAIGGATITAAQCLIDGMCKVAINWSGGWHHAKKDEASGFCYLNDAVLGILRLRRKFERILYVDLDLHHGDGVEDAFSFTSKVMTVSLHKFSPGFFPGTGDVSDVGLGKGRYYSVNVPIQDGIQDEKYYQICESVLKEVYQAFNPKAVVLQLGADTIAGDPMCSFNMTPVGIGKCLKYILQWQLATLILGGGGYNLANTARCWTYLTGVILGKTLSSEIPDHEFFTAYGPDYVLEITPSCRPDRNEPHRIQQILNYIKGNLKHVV

[1] abbreviates: class symbols, Table 14, read-out: HDAC8 IC50.

Regarding `CC(C)Oc1ccc(-c2cccc3nn(C(Cc4ccccc4)C(=O)NO)cc23)cn1` (stereo not drawn) [Compound I-0146, N-hydroxy-2-(4-(6-isopropoxypyridin-3-yl)-2H-indazol-2-yl)-3-phenylpropanamide], the IC50 under setting [1] fell in the range of 200 to 500 nM.
Same read-out and setting: as for `O=C(NO)C(Cc1ccccc1)n1cc2cnccc2n1` (stereo not drawn) [Compound I-0043, N-hydroxy-3-phenyl-2-(2H-pyrazolo[4,3-c]pyridin-2-yl)propanamide], the figure is greater than 500 nM.
With `CN1CCN(Cc2cccc3cn(C(Cc4ccccc4)C(=O)NO)nc23)CC1` (stereo not drawn) [Compound I-0188, N-hydroxy-2-(7-((4-methylpiperazin-1-yl)methyl)-2H-indazol-2-yl)-3-phenylpropanamide], the half-maximal inhibitory concentration (IC50) under setting [1] was greater than 500 nM.
Same read-out and setting: as for `Cc1ccc2c(cnn2C(Cc2ccccc2)C(=O)NO)n1` (stereo not drawn) [Compound I-0075, N-hydroxy-2-(5-methyl-1H-pyrazolo[4,3-b]pyridin-1-yl)-3-phenylpropanamide], the figure is 200 to 500 nM; as for `Cn1nccc1-c1cccc2cn(C(Cc3ccccc3)C(=O)NO)nc12` (stereo not drawn) [Compound I-0067, N-hydroxy-2-(7-(1-methyl-1H-pyrazol-5-yl)-2H-indazol-2-yl)-3-phenylpropanamide], 50 to 200 nM.
`Cn1nc(C(Cc2ccccc2)C(=O)NO)c2ccc(Cl)cc21` (stereo not drawn) [Compound I-0202, 2-(6-Chloro-1-methyl-1H-indazol-3-yl)-N-hydroxy-3-phenylpropanamide]: the IC50 (HDAC8, read-out: IC50) stood at 39 nM.
Turning to `O=C(NO)C(Cc1ccccc1)n1cc2cccc(CN3CCCC(F)(F)C3)c2n1` (stereo not drawn) [Compound I-0190, 2-(7-((3,3-difluoropiperidin-1-yl)methyl)-2H-indazol-2-yl)-N-hydroxy-3-phenylpropanamide], under setting [1], the IC50 is 200 to 500 nM.
The same measure, in the same setting: the figure for `O=C(NO)C(Cc1ccccc1)n1ncc2cc(-c3ccccc3)ccc21` (stereo not drawn) [Compound I-0013, N-hydroxy-3-phenyl-2-(5-phenyl-1H-indazol-1-yl)propanamide] is 200 to 500 nM; for `O=C(NO)C(Cc1ccccc1)n1ncc2ccccc21` (stereo not drawn) [Compound I-0102, N-hydroxy-2-(1H-indazol-1-yl)-3-phenylpropanamide] it is greater than 500 nM.
Turning to `CN1CC=C(c2cccc3cn(C(Cc4ccccc4)C(=O)NO)nc23)CC1` (stereo not drawn) [Compound I-0101, N-hydroxy-2-(7-(1-methyl-1,2,3,6-tetrahydropyridin-4-yl)-2H-indazol-2-yl)-3-phenylpropanamide], under setting [1], the IC50 was greater than 500 nM.
For `Cn1nccc1-c1nccc2c1cnn2C(Cc1ccccc1)C(=O)NO` (stereo not drawn) [Compound I-0069, N-hydroxy-2-(4-(1-methyl-1H-pyrazol-5-yl)-1H-pyrazolo[4,3-c]pyridin-1-yl)-3-phenylpropanamide], the IC50 under setting [1] lay in the range of 50 to 200 nM.
Turning to `CN(C)C(=O)c1ccc(-c2ccc3c(cnn3C(Cc3ccccc3)C(=O)NO)c2)cc1` (stereo not drawn) [Compound I-0106, 4-(1-(1-(hydroxyamino)-1-oxo-3-phenylpropan-2-yl)-1H-indazol-5-yl)-N,N-dimethylbenzamide], the IC50 under setting [1] lay within 200 to 500 nM.
On the same count and under the same terms, the figure for `CCc1ccc2c(cnn2C(Cc2ccccc2)C(=O)NO)c1` (stereo not drawn) [Compound I-0020, 2-(5-ethyl-1H-indazol-1-yl)-N-hydroxy-3-phenylpropanamide] is 200 to 500 nM; for `Cn1cc(-c2cnc3c(cnn3C(Cc3ccccc3)C(=O)NO)c2)cn1` (stereo not drawn) [Compound I-0120, N-hydroxy-2-(5-(1-methyl-1H-pyrazol-4-yl)-1H-pyrazolo[3,4-b]pyridin-1-yl)-3-phenylpropanamide] it is 200 to 500 nM.
Same read-out and setting: as for `O=C(NO)C(Cc1ccccc1)c1cnc2cc(-c3ccncc3)ccn12` (stereo not drawn) [Compound I-0113, N-hydroxy-3-phenyl-2-(7-(pyridin-4-yl)imidazo[1,2-a]pyridin-3-yl)propanamide], the figure is greater than 500 nM.
The same measure, in the same setting: the figure for `O=C(NCCC1CCOCC1)c1cccc2cn(C(Cc3ccccc3)C(=O)NO)nc12` (stereo not drawn) [Compound I-0178, 2-(1-(hydroxyamino)-1-oxo-3-phenylpropan-2-yl)-N-(2-(tetrahydro-2H-pyran-4-yl)ethyl)-2H-indazole-7-carboxamide] is no more than 50 nM.
As to `NC(=O)c1ccc(-c2cc3cnn(C(Cc4ccccc4)C(=O)NO)c3cn2)cc1` (stereo not drawn) [Compound I-0089, 4-(1-(1-(hydroxyamino)-1-oxo-3-phenylpropan-2-yl)-1H-pyrazolo[3,4-c]pyridin-5-yl)benzamide], under setting [1], the IC50 fell in the range of 200 to 500 nM.
In the case of `Cc1nn(C)c(C)c1-c1cccc2cn(C(Cc3ccccc3)C(=O)NO)nc12` (stereo not drawn) [Compound I-0111, N-hydroxy-3-phenyl-2-(7-(1,3,5-trimethyl-1H-pyrazol-4-yl)-2H-indazol-2-yl)propanamide], under setting [1], the IC50 is greater than 500 nM.
Same read-out and setting: the figure for `O=C(NO)C(Cc1ccccc1)n1cc2c(n1)CCCC2` (stereo not drawn) [Compound I-0200, N-hydroxy-3-phenyl-2-(4,5,6,7-tetrahydro-2H-indazol-2-yl)propanamide] is 200 to 500 nM; for `COc1ncc(-c2cc3cnn(C(Cc4ccccc4)C(=O)NO)c3cn2)cn1` (stereo not drawn) [Compound I-0094, N-hydroxy-2-(5-(2-methoxypyrimidin-5-yl)-1H-pyrazolo[3,4-c]pyridin-1-yl)-3-phenylpropanamide] it is 200 to 500 nM; for `O=C(NO)C(Cc1ccccc1)n1ccc2nc(Cl)ccc21` (stereo not drawn) [Compound I-0193, 2-(5-chloro-1H-pyrrolo[3,2-b]pyridin-1-yl)-N-hydroxy-3-phenylpropanamide] it is greater than 500 nM.
Take `O=C(NO)C(Cc1ccccc1)n1cc2cccc(CN3CCC(N4CCOCC4)CC3)c2n1` (stereo not drawn) [Compound I-0185, N-hydroxy-2-(7-((4-morpholinopiperidin-1-yl)methyl)-2H-indazol-2-yl)-3-phenylpropanamide]: the IC50 under setting [1] was greater than 500 nM.
`O=C(NO)C(Cc1ccccc1)n1ccc2cc(Cl)ncc21` (stereo not drawn) [Compound I-0194, 2-(5-chloro-1H-pyrrolo[2,3-c]pyridin-1-yl)-N-hydroxy-3-phenylpropanamide]: the IC50 under setting [1] was greater than 500 nM.
On the same count and under the same terms, as for `O=C(NO)C(Cc1ccccc1)n1ncc2cc(Br)ncc21` (stereo not drawn) [Compound I-0099, 2-(5-bromo-1H-pyrazolo[3,4-c]pyridin-1-yl)-N-hydroxy-3-phenylpropanamide], the figure is greater than 500 nM.
On the same count and under the same terms, the figure for `O=C(NO)C(Cc1ccccc1)n1cc2cccc(C#CC3CC3)c2n1` (stereo not drawn) [Compound I-0082, 2-(7-(Cyclopropylethynyl)-2H-indazol-2-yl)-N-hydroxy-3-phenylpropanamide] is 200 to 500 nM.
The same measure, in the same setting: the figure for `O=C(NO)C(Cc1ccccc1)n1ncc2cc(-c3cccnc3)cnc21` (stereo not drawn) [Compound I-0132, N-hydroxy-3-phenyl-2-(5-(pyridin-3-yl)-1H-pyrazolo[3,4-b]pyridin-1-yl)propanamide] is 200 to 500 nM.
For `O=C(NO)C(Cc1ccccc1)n1ncc2cc(-c3ccncc3)cnc21` (stereo not drawn) [Compound I-0133, N-hydroxy-3-phenyl-2-(5-(pyridin-4-yl)-1H-pyrazolo[3,4-b]pyridin-1-yl)propanamide], under setting [1], the IC50 is greater than 500 nM.
On the same count and under the same terms, the figure for `Cn1nccc1-c1cccc2nn(C(Cc3ccccc3)C(=O)NO)cc12` (stereo not drawn) [Compound I-0061, N-hydroxy-2-(4-(1-methyl-1H-pyrazol-5-yl)-2H-indazol-2-yl)-3-phenylpropanamide] is 200 to 500 nM.
Still for that read-out and setting: the figure for `O=C(NO)C(Cc1ccccc1)n1cc2cccc(CN3CCC(C(F)(F)F)CC3)c2n1` (stereo not drawn) [Compound I-0191, N-hydroxy-3-phenyl-2-(7-((4-(trifluoromethyl)piperidin-1-yl)methyl)-2H-indazol-2-yl)propanamide] is greater than 500 nM; for `O=C(NO)C(Cc1ccccc1)n1ncc2cc(-c3c(F)cccc3F)ccc21` (stereo not drawn) [Compound I-0014, 2-(5-(2,6-difluorophenyl)-1H-indazol-1-yl)-N-hydroxy-3-phenylpropanamide] it is 200 to 500 nM.
Consider `O=C(NO)C(Cc1ccccc1)n1cc2cccc(C(=O)N3CCOCC3)c2n1` (stereo not drawn) [Compound I-0173, N-hydroxy-2-[7-(morpholin-4-ylcarbonyl)-2H-indazol-2-yl]-3-phenylpropanamide], for which the IC50 by setting is: (HDAC8, read-out: IC50) 1170 nM; under setting [1], greater than 500 nM.
As to `O=C(NO)C(Cc1ccccc1)n1ncc2nc(Cl)ccc21` (stereo not drawn) [Compound I-0076, 2-(5-chloro-1H-pyrazolo[4,3-b]pyridin-1-yl)-N-hydroxy-3-phenylpropanamide], under setting [1], the IC50 was 50 to 200 nM.
Same read-out and setting: as for `O=C(NO)C(Cc1ccccc1)n1ncc2cc(Br)cnc21` (stereo not drawn) [Compound I-0122, 2-(5-bromo-1H-pyrazolo[3,4-b]pyridin-1-yl)-N-hydroxy-3-phenylpropanamide], the figure is 200 to 500 nM; as for `O=C(NO)C(Cc1ccccc1)n1ncc2cc(-c3ccccc3)cnc21` (stereo not drawn) [Compound I-0116, N-hydroxy-3-phenyl-2-(5-phenyl-1H-pyrazolo[3,4-b]pyridin-1-yl)propanamide], greater than 500 nM.
As for `O=C(NO)C(Cc1ccccc1)c1cnc2c(Cl)cccn12` (stereo not drawn) [Compound I-0134, 2-(8-Chloroimidazo[1,2-a]pyridin-3-yl)-N-hydroxy-3-phenylpropanamide], the IC50 was 258 nM (HDAC8, read-out: IC50) and 200 to 500 nM under setting [1].
As for `O=C(NO)C(Cc1ccccc1)n1cc2c(N3CCOCC3)cccc2n1` (stereo not drawn) [Compound I-0059, N-hydroxy-2-(4-morpholino-2H-indazol-2-yl)-3-phenylpropanamide], the half-inhibitory concentration (IC50) under setting [1] was greater than 500 nM.
On to `O=C(NCCC1CCOCC1)c1cccc2c(C#CC3CC3)n(C(Cc3ccccc3)C(=O)NO)nc12` (stereo not drawn) [Compound I-0197, 2-[1-Benzyl-2-(hydroxyamino)-2-oxethyl]-3-(cyclopropylethynyl)-N-[2-(tetrahydro-2H-pyran-4-yl)ethyl]-2H-indazole-7-carboxamide], for which the IC50 is 16 nM (HDAC8, read-out: IC50) and no more than 50 nM under setting [1].
Turning to `O=C(NO)C(Cc1ccccc1)n1nc2ccc(-c3c(F)cccc3F)cc2c1C#CC1CC1` (stereo not drawn) [Compound I-0027, 2-(3-(cyclopropylethynyl)-5-(2,6-difluorophenyl)-2H-indazol-2-yl)-N-hydroxy-3-phenylpropanamide], the IC50 under setting [1] lay in the range of 200 to 500 nM.
On the same count and under the same terms, as for `Cc1ccc2nn(C(Cc3ccccc3)C(=O)NO)cc2c1` (stereo not drawn) [Compound I-0049, N-hydroxy-2-(5-methyl-2H-indazol-2-yl)-3-phenylpropanamide], the figure is greater than 500 nM.

What is called IC50 is the point on the concentration scale where inhibition reaches its midpoint.
